Data from PubChem BioAssay AID248 (DTP/NCI, 2004).
Values joined by “and” are separate entries in the source; they are usually repeats but may differ in a detail not shown here. Equal entries are not always repeated. Toxic doses and inconclusive results are not listed. Rule as the data show it: active = T/C of 150% or more; inactive = T/C below 125%.

System: L1210 leukemia ip in BDF1 mice, survival T/C
Test: NCI In Vivo Anticancer Drug Screen. Data for tumor model L1210 Leukemia (intraperitoneal) in B6D2F1 (BDF1) mice
Details: endpoint: mean survival time, higher = longer survival
Method in brief: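 Each compound was tested against a transplantable tumor grown in mice. The endpoint was survival, with treated animals benchmarked against vehicle controls as a simple ratio.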

[1] = dose: 100.0 mg/kg/injection, schedule: Q04DX002 (ip), vehicle: Klucel (hydroxypropylcellulose) (HPC)
[2] = dose: 100.0 mg/kg/injection, schedule: Q04DX003 (ip), vehicle: Klucel (hydroxypropylcellulose) (HPC)
[3] = dose: 200.0 mg/kg/injection, schedule: Q01DX009 (ip), vehicle: Klucel (hydroxypropylcellulose) (HPC)
[4] = dose: 200.0 mg/kg/injection, schedule: Q04DX002 (ip), vehicle: Klucel (hydroxypropylcellulose) (HPC)
[5] = dose: 200.0 mg/kg/injection, schedule: Q04DX003 (ip), vehicle: Klucel (hydroxypropylcellulose) (HPC)
[6] = dose: 400.0 mg/kg/injection, schedule: Q04DX002 (ip), vehicle: Klucel (hydroxypropylcellulose) (HPC)
[7] = dose: 400.0 mg/kg/injection, schedule: Q04DX003 (ip), vehicle: Klucel (hydroxypropylcellulose) (HPC)

Measured: T/C

Cc1ccc(NCc2cccc3ccccc23)c(C)c1
inactive: dose: 100.0 mg/kg/injection, schedule: Q01DX009 (ip), vehicle: saline 96 % of control | dose: 100.0 mg/kg/injection, schedule: Q04DX003 (ip), vehicle: saline 104 % of control | dose: 200.0 mg/kg/injection, schedule: Q01DX009 (ip), vehicle: saline 97 % of control | dose: 200.0 mg/kg/injection, schedule: Q04DX003 (ip), vehicle: saline 102 % of control | dose: 400.0 mg/kg/injection, schedule: Q01DX009 (ip), vehicle: saline 94 % of control | dose: 400.0 mg/kg/injection, schedule: Q04DX003 (ip), vehicle: saline 96 % of control

CCSc1nc(/C=N/NS(=O)(=O)c2ccccc2)c(F)c(=O)[nH]1
inactive: dose: 100.0 mg/kg/injection, schedule: Q01DX001 (ip), vehicle: other 105 % of control | dose: 200.0 mg/kg/injection, schedule: Q01DX001 (ip), vehicle: other 101 % of control | dose: 400.0 mg/kg/injection, schedule: Q01DX001 (ip), vehicle: other 96 % of control

O=C1NC(=O)C2C3CCC(C12)C3C(c1ccccc1)c1ccccc1 (configuration not stated)
inactive: dose: 100.0 mg/kg/injection, schedule: Q01DX001 (ip), vehicle: carboxymethylcellulose (CMC) 106 % of control | dose: 200.0 mg/kg/injection, schedule: Q01DX001 (ip), vehicle: carboxymethylcellulose (CMC) 95 % of control | dose: 400.0 mg/kg/injection, schedule: Q01DX001 (ip), vehicle: carboxymethylcellulose (CMC) 103 % of control

NC(=O)C1CCN(C(=O)Nc2cc(C(F)(F)F)ccc2Cl)CC1
inactive: dose: 100.0 mg/kg/injection, schedule: Q01DX001 (ip), vehicle: Klucel (hydroxypropylcellulose) (HPC) 93 % of control | dose: 100.0 mg/kg/injection, schedule: Q01DX009 (ip), vehicle: Klucel (hydroxypropylcellulose) (HPC) 98 % of control and 102 % of control | [1] 103 % of control and 107 % of control | [2] 111 % of control | dose: 200.0 mg/kg/injection, schedule: Q01DX001 (ip), vehicle: Klucel (hydroxypropylcellulose) (HPC) 86 % of control | [3] 93 % of control and 98 % of control | [4] 100 % of control and 105 % of control | [5] 103 % of control | dose: 400.0 mg/kg/injection, schedule: Q01DX001 (ip), vehicle: Klucel (hydroxypropylcellulose) (HPC) 91 % of control | dose: 400.0 mg/kg/injection, schedule: Q01DX009 (ip), vehicle: Klucel (hydroxypropylcellulose) (HPC) 95 % of control | [6] 100 % of control | [7] 107 % of control

CC1=C(Br)C(=O)NC1=O
inactive: dose: 100.0 mg/kg/injection, schedule: Q04DX003 (ip), vehicle: saline with Tween-80 107 % of control | dose: 200.0 mg/kg/injection, schedule: Q04DX003 (ip), vehicle: saline with Tween-80 101 % of control | dose: 400.0 mg/kg/injection, schedule: Q04DX003 (ip), vehicle: saline with Tween-80 107 % of control

Cc1ccc(NC(=O)OC/C=C/c2ccccc2)cc1NC(=O)OC/C=C/c1ccccc1
inactive: [3] 93 % of control

Oc1cccc(-c2cc3c(O)ccc(O)c3[nH]2)c1
inactive: [1] 86 % of control | [4] 99 % of control | [6] 91 % of control

COc1ccccc1CN1CCCN(Cc2ccccc2OC)C1c1ccccn1
inactive: dose: 50.0 mg/kg/injection, schedule: Q01DX001 (ip), vehicle: saline 100 % of control | dose: 100.0 mg/kg/injection, schedule: Q01DX001 (ip), vehicle: saline 100 % of control | dose: 200.0 mg/kg/injection, schedule: Q01DX001 (ip), vehicle: saline 100 % of control

Clc1cc(Cl)cc(N=Nc2ccccc2)c1
inactive: [2] 102 % of control | [5] 103 % of control | [7] 103 % of control
